# Square brackets hold non-standard residues; d marks the D form. Peptide text beside a SMILES is read from it. * marks the point of attachment. AFC = O=c1cc(C(F)(F)F)c2ccc(N*)cc2o1; pNA = O=[N+]([O-])c1ccc(N*)cc1; Cbz = O=C(OCc1ccccc1)*; Sar = CNCC(=O)O
# Experiments:
# thrombin = assay: More sensitive thrombin activity assay with fluorogenic substrate Z-GPR-afc (fluorescence at 500 nm); assay type: biochemical, human; details: excitation at 400 nm
# Protocol: (§1) Assays of human a-thrombin and human trypsin were performed at 25° C. in 0.05 M TRIS buffer pH 7.4, 0.15 M NaCl, 0.1% PEG. Trypsin assays also contained 1 mM CaCl2.
# In certain studies with potent inhibitors (Ki <10 nM) where the degree of inhibition of thrombin was high, a more sensitive activity assay was employed. […] Concentrations of stock solutions of Z-GPR-afc were determined from measurements of absorbance at 380 nm of the 7-amino-4-trifluoromethyl coumarin produced upon complete hydrolysis of an aliquot of the stock solution by thrombin.
# (§2) Activity assays were performed by diluting a stock solution of substrate at least tenfold to a final concentration ≤0.5 Km into a solution containing enzyme or enzyme equilibrated with inhibitor. Times required to achieve equilibration between enzyme and inhibitor were determined in control experiments. Initial velocities of product formation in the absence (Vo) or presence of inhibitor (Vi) were measured. Assuming competitive inhibition, and that unity is negligible compared Km /[S], […] (where [S], [I], and e respectively represent the total concentrations, of substrate, inhibitor and enzyme), the equilibrium constant (Ki) for dissociation of the inhibitor from the enzyme can be obtained from the dependence of Vo /Vi on [I] shown in equation 1.
# human a-thrombin = assay: In vitro assay for determining proteinase inhibition, thrombin (p-nitroanilide substrate sar-PR-pna, 405 nm); assay type: biochemical; details: 25° C., pH 7.4
# Protocol: (§3) In Vitro Assay for Determining Proteinase Inhibition
# as §1, §2
# human trypsin = assay: In vitro assay for determining proteinase inhibition, trypsin (p-nitroanilide substrate sar-PR-pna, 405 nm); assay type: biochemical; details: 25° C., pH 7.4, 1 mM CaCl2
# Protocol: as §3, §1, §2
Km (thrombin) [µM],SMILES,Km (human a-thrombin) [µM],Km (human trypsin) [µM]
27,"N=C(N)NCCC[C@H](NC(=O)[C@@H]1CCCN1C(=O)CNC(=O)OCc1ccccc1)C(=O)Nc1ccc2c(C(F)(F)F)cc(=O)oc2c1 [Z-GPR-afc, Cbz-Gly-Pro-Arg-7-amino-4-trifluoromethylcoumarin] (Cbz-Gly-Pro-Arg-{AFC})",–,–
–,"CNCC(=O)N1CCC[C@H]1C(=O)N[C@@H](CCCNC(=N)N)C(=O)Nc1ccc([N+](=O)[O-])cc1 [sar-PR-pna, sarcosine-Pro-Arg-p-nitroanilide] (H-[Sar]-Pro-Arg-pNA)",125,59
